Results published in patent US7307063B2, “Melanocortin metallopeptides for treatment of sexual dysfunction” (Palatin Technologies, Inc., priority 2001, dated 2007).
Non-standard residues stand in square brackets, D forms with d. No end group written: not given here. *: point of attachment. Tiq = 1,2,3,4-tetrahydroisoquinoline-1-carboxylic acid; Bip = N[C@@H](Cc1ccc(-c2ccccc2)cc1)C(=O)O; 2Nal = N[C@@H](Cc1ccc2ccccc2c1)C(=O)O; Desaminotyrosyl = O=C(CCc1ccc(O)cc1)*; dIgl = N[C@@H](C(=O)O)C1Cc2ccccc2C1; Igl = N[C@H](C(=O)O)C1Cc2ccccc2C1; d(pGlu) = O=C1CC[C@H](C(=O)O)N1; code Z = not defined here; 4‑Amc = not defined here; Nle = CCCC[C@H](N)C(=O)O; Ahp = NCCCCCCC(=O)O

Key:
hMC5-R = target: T1, hMC5-R (Homo sapiens, UniProt P33032); experiment: Competitive binding assay: inhibition of 125I-NDP-α-MSH binding to HEK-293 membranes with cloned human receptor subtype 5; details: Table 6; 1 μM; mean of triplicate
T1 construct: expressed in transfected cells; host or cells: HEK-293
Procedure: (§1) Rhenium-complexed metallopeptides of the formulas given in Table 1 were prepared, with the metallopeptides complexed with rhenium using the rhenium transfer agent ReOCl3(PPh3)2 in the presence of 1,8-Diazabicyclo[5,4,0] undec-7-ene as a base, as disclosed in International Application PCT/US00/16396, filed Jun. 14, 2000, Melanocortin Metallopeptide Constructs, Combinatorial Libraries and Applications, incorporated by reference herein. Affinities of compounds were measured using membranes from HEK-293 cells containing cloned human melanocortin receptor subtypes 3, 4 and 5. MC1-R membranes were isolated from B16—F10 mouse melanoma cells. The assay tube also contained a chosen concentration of the test peptide of this invention, complexed to a rhenium metal ion as indicated, for determining its efficacy in inhibiting the binding of ^125I-NDP-α-MSH to its receptor. Non-specific binding was measured by complete inhibition of binding of ^125I-NDP-α-MSH in the assay with the presence of 1 μM α-MSH. 100% specific binding was defined as the difference in radioactivity (cpm) bound to cell membranes in the absence and presence of 1 μM α-MSH. The cpm obtained in presence of test compounds were normalized with respect to 100% specific binding to determine the percent inhibition of ^125I-NDP-α-MSH binding.
(§2) Peptide sequences set forth in Table 6 were prepared using conventional synthetic means. The resulting sequences were rhenium-complexed to form metallopeptides, with the metallopeptides complexed with rhenium using the rhenium transfer agent ReOCl3(PPh3)2 in the presence of 1,8-Diazabicyclo[5,4,0] undec-7-ene as a base. Percent inhibition was determined as in Example 1 using the Re-complexed metallopeptides, using the same methods as described therein. All measures are means of triplicate determinations.

MC1-R = target: T2, MC1-R (Mus musculus, UniProt Q01727); experiment: Competitive binding assay: inhibition of 125I-NDP-α-MSH binding to membranes from B16-F10 mouse melanoma cells; details: Table 6, mean of triplicate
T2 construct: MC1-R membranes were isolated from B16—F10 mouse melanoma cells; endogenous in cells; host or cells: B16-F10 mouse melanoma cells
In short: (§3)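 Test metallopeptides, complexed to rhenium, compete with 125I-NDP-α-MSH for receptor sites on mouse B16-F10 or human-receptor HEK-293 membranes. Specific binding is the cpm difference without and with 1 μM α-MSH, and values are percent inhibition.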

MC4-R = target: T3, MC4-R (Homo sapiens, UniProt P32245); experiment: Competitive binding assay: inhibition of 125I-NDP-α-MSH binding to HEK-293 membranes with cloned human receptor subtype 4; details: Table 6, mean of triplicate
T3 construct: expressed in transfected cells; host or cells: HEK-293
In short: as §3

hMC2-R = target: T4, hMC2-R (Homo sapiens, UniProt P41968); experiment: Competitive binding assay of additional compounds, Table 6 hMC2-R; details: 1 μM, mean of triplicate
T4 construct: expressed in transfected cells; host or cells: HEK-293
Procedure: [The source words this procedure for another target and reports this target under the same test.] as §1, §2

T1 sequence (P33032 whole entry): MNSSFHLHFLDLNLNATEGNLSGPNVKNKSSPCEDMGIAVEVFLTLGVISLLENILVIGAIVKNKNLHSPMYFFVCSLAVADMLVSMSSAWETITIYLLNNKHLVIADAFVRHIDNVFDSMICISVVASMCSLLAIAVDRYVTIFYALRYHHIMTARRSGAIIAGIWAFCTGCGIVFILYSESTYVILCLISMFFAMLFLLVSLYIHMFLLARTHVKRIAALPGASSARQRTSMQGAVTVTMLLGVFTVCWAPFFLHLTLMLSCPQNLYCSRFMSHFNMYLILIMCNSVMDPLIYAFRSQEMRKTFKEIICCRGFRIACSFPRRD
T2 sequence (Q01727 whole entry): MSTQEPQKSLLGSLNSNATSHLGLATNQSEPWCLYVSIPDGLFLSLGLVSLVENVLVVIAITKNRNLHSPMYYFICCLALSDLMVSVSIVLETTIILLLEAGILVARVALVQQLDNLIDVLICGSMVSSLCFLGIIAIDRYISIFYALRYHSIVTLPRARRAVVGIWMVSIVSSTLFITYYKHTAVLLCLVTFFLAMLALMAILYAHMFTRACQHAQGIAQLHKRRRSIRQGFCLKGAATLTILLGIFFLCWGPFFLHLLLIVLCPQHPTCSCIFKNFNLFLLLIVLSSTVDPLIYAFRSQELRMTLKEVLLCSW
T4 sequence (P41968 whole entry): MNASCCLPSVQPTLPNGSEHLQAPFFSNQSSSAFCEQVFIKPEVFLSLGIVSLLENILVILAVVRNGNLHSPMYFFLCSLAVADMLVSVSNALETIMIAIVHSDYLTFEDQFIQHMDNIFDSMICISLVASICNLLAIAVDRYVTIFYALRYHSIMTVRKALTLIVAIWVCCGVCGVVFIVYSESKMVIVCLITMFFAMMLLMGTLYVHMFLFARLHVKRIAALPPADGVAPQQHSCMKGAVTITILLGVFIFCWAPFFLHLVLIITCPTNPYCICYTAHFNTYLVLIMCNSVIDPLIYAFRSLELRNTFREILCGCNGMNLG
T3 sequence (P32245 whole entry): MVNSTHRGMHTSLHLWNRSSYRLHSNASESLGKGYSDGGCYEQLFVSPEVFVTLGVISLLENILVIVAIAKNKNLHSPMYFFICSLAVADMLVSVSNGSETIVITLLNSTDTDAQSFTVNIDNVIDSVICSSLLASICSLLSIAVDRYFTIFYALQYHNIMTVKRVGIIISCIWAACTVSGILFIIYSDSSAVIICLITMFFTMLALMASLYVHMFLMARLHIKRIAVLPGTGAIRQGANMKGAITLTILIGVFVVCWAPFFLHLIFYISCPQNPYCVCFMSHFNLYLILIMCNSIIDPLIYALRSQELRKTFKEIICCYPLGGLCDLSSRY

% Inhibition of Binding hMC5-R (hMC5-R) | % Inhibition of Binding MC1-R (MC1-R; 1 μM) | % Inhibition of Binding hMC4-R (MC4-R; 1 μM) | % Inhibition of Binding hMC2-R (hMC2-R) | % Inhibition of Binding MC1-R (MC1-R; 0.1 μM) | % Inhibition of Binding hMC4-R (MC4-R; 0.1 μM) | % Inhibition of Binding hMC2-R (hMC2-R; listed as NH2(CH2)6CO-Ser(Bzl)-D-Phe(4′-Cl)-Arg-Trp-Cys-NH2, 1 µM) | Substance
99% | 72% | 89% | 94% |  |  |  | 3′-Br Phenyl acetyl-Arg-Arg-D-Phe(4′-CF3)-Cys-Trp-NH2
42% | 0% | 3% | 0% |  |  |  | Tic-D-Phe(4′-Cl)-Arg-Cys-NH2
56% | 53% | 16% | 3% |  |  |  | Tiq-D-Phe-Arg-Cys-Trp-NH2 (Tiq-[dF]RCW-NH2; also: metal complex)
76% | 18% | 62% | 41% |  |  |  | Tic-D-Phe(3′-Cl)-Arg-Trp-Cys-NH2
19% | 0% | 4% | 0% |  |  |  | Idc-D-Phe-Arg-Cys-Trp-NH2
95% | 14% | 96% | 69% |  |  |  | NH2(CH2)6CO-Ser(Bzl)-D-Nal 2′-Arg-Trp-Cys-NH2
13% | 11% | 5% | 0% |  |  |  | D-Nal 2′-D-Phe-Arg-Trp-Cys-NH2
0% | 39% | 14% | 0% |  |  |  | Pro-D-Phe-Arg-Trp-Cys-NH2 (P[dF]RWC-NH2; also: metal complex)
0% | 47% | 15% | 11% |  |  |  | 3′-Bromo phenyl acetyl-Arg-His-D-Phe(4′-Cl)-Cys-NH2
63% | 2% | 8% | 0% |  |  |  | [dIgl][dF]RWC-NH2
83% | 61% | 62% | 49% |  |  |  | 3′-Br Phenyl acetyl-Arg-Arg-D-Phe(3′-Cl)-Cys-Nal 1′-NH2
92% | 56% | 68% | 46% |  |  |  | 3′-Br Phenyl acetyl-Arg-Arg-D-Bip-Cys-Bip-NH2
23% | 5% | 34% | 0% |  |  |  | D-Tiq-D-Phe-Arg-Trp-Cys-NH2
0% | 15% | 1% | 0% |  |  |  | Ac-Nle-Ala-D-Tyr-D-Phe-Arg-Cys-Trp-NH2 (Ac-[Nle]A[dY][dF]RCW-NH2; not fully specified; printed as Ac-Nle-Ala-D-Tyr-D-Phe-Arg-Cys-Trp-NH2)
35% | 47% | 5% | 0% |  |  |  | 7-amino-Heptanoyl-D-Igl-D-Phe-Arg-Trp-Cys-NH2 ([Ahp][dIgl][dF]RWC-NH2; not fully specified; printed as 7-amino-Heptanoyl-D-Igl-D-Phe-Arg-Trp-Cys-NH2)
63% | 39% | 21% | 13% |  |  |  | Nal 2′-D-Phe-Arg-Cys-Trp-NH2 ([2Nal][dF]RCW-NH2; also: metal complex)

The remaining lines, values behind:

Substance | % Inhibition of Binding hMC5-R (hMC5-R) | % Inhibition of Binding MC1-R (MC1-R; 1 μM) | % Inhibition of Binding hMC4-R (MC4-R; 1 μM) | % Inhibition of Binding hMC2-R (hMC2-R) | % Inhibition of Binding MC1-R (MC1-R; 0.1 μM) | % Inhibition of Binding hMC4-R (MC4-R; 0.1 μM) | % Inhibition of Binding hMC2-R (hMC2-R; listed as NH2(CH2)6CO-Ser(Bzl)-D-Phe(4′-Cl)-Arg-Trp-Cys-NH2, 1 µM)
Ac-Ala-Ala-His-D-Phe-Arg-Cys-Trp-NH2 ({Ac-Ala-Ala-H2N}-[dF]RCW-NH2; not fully specified; printed as Ac-Ala-Ala-His-D-Phe-Arg-Cys-Trp-NH2) | 17% | 76% | 4% | 0% |  |  | 
[Igl][dF]RWC-NH2 | 36% | 70% | 62% | 0% |  |  | 
4-Amc-D-Phe-Arg-Trp-Cys-NH2 ({4‑Amc}-[dF]RWC-NH2; not fully specified; printed as 4-Amc-D-Phe-Arg-Trp-Cys-NH2; reading uncertain) | 6% | 51% | 6% | 0% |  |  | 
Tiq-D-Phe-Arg-Trp-Cys-NH2 (Tiq-[dF]RWC-NH2; also: metal complex) | 55% | 7% | 8% | 7% |  |  | 
Z-D-Pyr-D-Phe-Arg-Trp-Cys-NH2 ({code Z}-[d(pGlu)][dF]RWC-NH2; reading uncertain; also: metal complex, printed as Z-D-Pyr-D-Phe-Arg-Trp-Cys-NH2) | 28% | 44% | 46% | 16% |  |  | 
[dIgl][dF]RCW-NH2 | 39% | 49% | 15% | 12% |  |  | 
Ac-Nle-Ala-His-D-Phe-Arg-Nal 1′-Cys-NH2 | 82% | 95% | 65% | 22% |  |  | 
NH2-(CH2)6-CO-Ser(Bzl)-D-Phe(4′-Cl)-Arg-Trp-Cys-NH2 | 100% | 74% | 94% | 90% | 28% | 68% | 87%
Ac-Ala-Ala-Ala-D-Phe-Arg-Cys-Trp-NH2 (Ac-AAA[dF]RCW-NH2; not fully specified; printed as Ac-Ala-Ala-Ala-D-Phe-Arg-Cys-Trp-NH2) | 0% | 5% | 3% | 0% |  |  | 
3′-Br Phenyl acetyl-Arg-Arg-D-Bip-Cys-Trp-NH2 | 99% | 91% | 77% | 83% |  |  | 
Ac-[Nle]AH[dF]R[dH]C-NH2 | 0% | 52% | 16% | 0% |  |  | 
3′-(4′-Hydroxyphenyl)propionyl-HiS-D-Phe-Arg-Cys-Trp-NH2 (Desaminotyrosyl-H[dF]RCW-NH2; not fully specified; printed as 3′-(4′-Hydroxyphenyl)propionyl-HiS-D-Phe-Arg-Cys-Trp-NH2) | 21% | 76% | 0% | 0% |  |  | 
7-amino-haptanoyl-D-Igl-D-Phe-Arg-Cys-NH2 | 32% | 8% | 10% | 0% |  |  | 
[Bip][dF]RWC-NH2 | 51% | 0% | 19% | 0% |  |  | 
D-Nal 2′-D-Phe-Arg-Cys-Trp-NH2 | 52% | 50% | 0% | 7% |  |  | 
3′-Br-Phenylacetyl-His-Gly-D-Phe(4′-Cl)Trp-Cys-NH2 | 16% | 33% | 2% | 14% |  |  | 
Tic-D-Phe(4′-Cl)-His-Cys-NH2 | 37% | 15% | 0% | 0% |  |  | 
